What was measured:
Type in all cases: cell-based, human
[1] = system: bulk polyclonal CD8 effector cells; assay: ORFeome CD8 screen: IFN-γ ELISA after adding CD8 responders to Cos-7 aAPC co-transfected with HLA class I cDNA and HSV-1 ORF; conditions: for CD8 IFN-γ responses to HSV-1 polypeptide (ORF level): amongst the 7 participants, HLA A, B, C screens; for HLA A*0101-bearing donors with CD8 T cells recognizing the ORF: primary co-transfection screens with shared HLA cDNA; for number of distinct restricting HLA alleles: CD8 recognition; for number of persons with CD8 recognition of the ORF: of 7 persons; for number of HLA-level screens in which the ORF was recognized: of 39 screens; for CD8 reactivity restricted by HLA A*0101: participant 1
[2] = system: Bulk-expanded HSV-1-reactive CD4 T-cell lines; assay: ORFeome CD4 screen: 3H thymidine proliferation to recombinant HSV-1 proteins; conditions: of 11 persons
[3] = system: CD4+ clone 9447.28 specific for HSV-1 VP22 AA 199-211; assay: 3H thymidine proliferation check of expressed VP22 with a CD4 T-cell clone; conditions: pEXP203 in vitro expressed protein
Experimental: For expression, pEXP203 plasmids were prepared from a 3 ml ampicillin culture of transformed E. coli using a silica method (Qiagen) and mass determined by spectrophotometry. Protein expression used 50 μl volumes of the Expressionway E. coli system (Invitrogen). To check expression, 1 μl of reaction product was spotted onto nitrocellulose membranes (Whatman, Piscataway, N.J.), air-dried, blocked with 1% blocking reagent (Roche) diluted in TBS (50 mM Tris, 150 mM NaCl, pH 7.5), probed with anti-6-His mAb (Roche) diluted 1:500 in TBS-0.1% Tween −20 (TBS-T) (Roche), washed with TBS-T, incubated with horseradish peroxidase-conjugated anti-mouse IgG (Promega) diluted 1:2500 in TBS-T, washed with TBS-T, and developed with TMB substrate (Promega). Proteins failing to display a spot indicating anti-6-His binding were re-synthesized. For HSV-1 protein VP22 (gene UL49), expression was checked by triplicate, 3-day ^3H thymidine proliferation assay using cornea-derived CD4+ clone 9447.28 specific for HSV-1 VP22 AA 199-211 (18) as responders (2×10^4/well), autologous 3,300 rad γ-irradiated PBMC as APC (10^5/well), and HSV-1 VP22 or controls expressed in the pEXP203 system.
We expressed proteins covering the large majority of the HSV-1 proteome using an in vitro bacterial expression system.

For RL2/ICP0: HSV-1 protein RL2/ICP0, the “CD8 IFN-γ responses to HSV-1 polypeptide (ORF level)” value (“CD8 IFN-γ responses” below) [1] was “elicit CD8 IFN-γ responses” and the “CD8 IFN-γ responses” value ([1]; listed as ICP0) was “detected”.

In the case of RS1/ICP4: HSV-1 protein RS1/ICP4, the “CD8 IFN-γ responses” value [1] is reported as “elicit CD8 IFN-γ responses” and the “CD8 IFN-γ responses” value ([1]; listed as ICP4) is reported as “detected”.

In the case of UL1: HSV-1 protein UL1/Glycoprotein L, the “CD8 IFN-γ responses” value [1] is reported as “elicit CD8 IFN-γ responses” and the “HLA A*0101-bearing donors with CD8 T cells recognizing the ORF” value [1] is reported as “each HLA A*0101-bearing donor”.

UL25: HSV-1 protein UL25 was tested, and the “CD8 IFN-γ responses” value [1] was “elicit CD8 IFN-γ responses”.

With UL29: HSV-1 protein UL29/ICP8 the “CD8 IFN-γ responses” value [1] was “elicit CD8 IFN-γ responses”.

UL31: HSV-1 protein UL31 was tested, and the “CD8 IFN-γ responses” value [1] was “elicit CD8 IFN-γ responses”.

UL37: HSV-1 protein UL37/ICP32 was tested, and the “CD8 IFN-γ responses” value [1] was “elicit CD8 IFN-γ responses”.

For UL41: HSV-1 protein UL41/vhs, the “CD8 IFN-γ responses” value [1] was “elicit CD8 IFN-γ responses”.

For “UL46: HSV-1 tegument protein VP11/12 encoded by gene UL46”, the “number of persons with CD4 recognition of the protein” value [2] was 11, the “number of distinct restricting HLA alleles” value [1] was 7 and the “CD8 IFN-γ responses” value [1] was “elicit CD8 IFN-γ responses”. For the same molecule, the “number of persons with CD8 recognition of the ORF” value [1] was 5 and the “number of HLA-level screens in which the ORF was recognized” value [1] was 10.

In the case of UL47: HSV-1 protein UL47/VP13/14, the “CD8 IFN-γ responses” value [1] is reported as “elicit CD8 IFN-γ responses”.

For UL48: HSV-1 protein UL48/VP16/ICP25, the “CD8 IFN-γ responses” value [1] was “elicit CD8 IFN-γ responses”, the “CD8 reactivity restricted by HLA A*0101” value [1] was “strong reactivity” and the “HLA A*0101-bearing donors with CD8 T cells recognizing the ORF” value [1] was “each HLA A*0101-bearing donor”.

For UL49: HSV-1 protein UL49/VP22, the “responses of VP22-specific CD4 T-cell clone to expressed protein” value [3] was “strong, specific responses” and the “CD8 IFN-γ responses” value [1] was “elicit CD8 IFN-γ responses”.

In the case of UL54: HSV-1 protein UL54 ICP27, the “CD8 IFN-γ responses” value [1] is reported as “elicit CD8 IFN-γ responses”.

For US7: HSV-1 protein US7/Glycoprotein I, the “CD8 IFN-γ responses” value [1] was “elicit CD8 IFN-γ responses”.

B1: UL40: HSV-1 protein UL40 (protein)
chain: MDSAAPALSPALTALTDQSATADLAIQIPKCPDPERYFYTSQCPDINHLRSLSILNRWLETELVFVGDEEDVSKLSEGELSFYRFLFAFLSAADDLVTENLGGLSGLFEQKDILHYYVEQECIEVVHSRVYNIIQLVLFHNNDQARREYVAGTINHPAIRAKVDWLEARVRECASVPEKFILMILIEGIFFAASFAAIAYLRTNNLLRVTCQSNDLISRDEAVHTTASCYIYNNYLGGHAKPPPDRVYGLFRQAVEIEIGFIRSQAPTDSHILSPAALAAIENYVRFSADRLLGLIHMKPLFSAPPPDASFPLSLMSTDKHTNFFECRSTSYAGAVVNDL
modifications: human herpesvirus 1
notes: HSV-1 protein UL40
B1 was tested, and the “CD8 IFN-γ responses” value [1] was “elicit CD8 IFN-γ responses”.

B2: US1/1.5: HSV-1 protein US1/ICP22 (protein)
chain: MADISPGAFAPCVKARRPALRSPPLGTRKRKRPSRPLSSESEVESDTALESEVESETASDSTESGDQDEAPRIGGRRAPRRLGGRFFLDMSAESTTGTETDASVSDDPDDTSDWSYDDIPPRPKRARVNLRLTSSPDRRDGVIFPKMGRVRSTRETQPRAPTPSAPSPNAMLRRSVRQAQRRSSARWTPDLGYMRQCINQLFRVLRVARDPHGSANRLRHLIRDCYLMGYCRARLAPRTWCRLLQVSGGTWGMHLRNTIREVEARFDATAEPVCKLPCLETRRYGPECDLSNLEIHLSATSDDEISDATDLEAAGSDHTLASQSDTEDAPSPVTLETPEPRGSLAVRLEDEFGEFDWTPQEGSQPWLSAVVADTSSVERPGPSDSGAGRAAEDRKCLDGCRKMRFSTACPYPCSDTFLRP
modifications: human herpesvirus 1
notes: HSV-1 protein US1/ICP22
With B2 the “CD8 IFN-γ responses” value [1] was “elicit CD8 IFN-γ responses” and the “CD8 IFN-γ responses” value ([1]; listed as ICP22) was “detected”.

B3: UL53: HSV-1 protein UL53/Glycoprotein K (protein)
chain: MLAVRSLQHLSTVVLITAYGLVLVWYTVFGASPLHRCIYAVRPTGTNNDTALVWMKMNQTLLFLGAPTHPPNGGWRNHAHICYANLIAGRVVPFQVPPDAMNRRIMNVHEAVNCLETLWYTRVRLVVVGWFLYLAFVALHQRRCMFGVVSPAHKMVAPATYLLNYAGRIVSSVFLQYPYTKITRLLCELSVQRQNLVQLFETDPVTFLYHRPAIGVIVGCELMLRFVAVGLIVGTAFISRGACAITYPLFLTITTWCFVSTIGLTELYCILRRGPAPKNADKAAAPGRSKGLSGVCGRCCSIILSGIAVRLCYIAVVAGVVLVALHYEQEIQRRLFDV
modifications: human herpesvirus 1
notes: HSV-1 protein UL53/Glycoprotein K
With B3 the “CD8 IFN-γ responses” value [1] was “elicit CD8 IFN-γ responses”.

B4: UL21: HSV-1 protein UL21 (protein)
chain: MELSYATTMHYRDVVFYVTTDRNRAYFVCGGCVYSVGRPCASQPGEIAKFGLVVRGTGPDDRVVANYVRSELRQRGLQDVRPIGEDEVFLDSVCLLNPNVSSELDVINTNDVEVLDECLAEYCTSLRTSPGVLISGLRVRAQDRIIELFEHPTIVNVSSHFVYTPSPYVFALAQAHLPRLPSSLEALVSGLFDGIPAPRQPLDAHNPRTDVVITGRRAPRPIAGSGAGSGGAGAKRATVSEFVQVKHIDRVGPAGVSPAPPPNNTDSSSLVPGAQDSAPPGPTLRELWWVFYAADRALEEPRADSGLTREEVRAVRGFREQAWKLFGSAGAPRAFIGAALGLSPLQKLAVYYYIIHRERRLSPFPALVRLVGRYTQRHGLYVPRPDDPVLADAINGLFRDALAAGTTAEQLLMFDLLPPKDVPVGSDVQADSTALLRFIESQRLAVPGGVISPEHVAYLGAFLSVLYAGRGRMSAATHTARLTGVTSLVLAVGDVDRLSAFDRGAAGAASRTRAAGYLDVLLTVRLARSQHGQSV
modifications: human herpesvirus 1
notes: HSV-1 protein UL21
For B4, the “CD8 IFN-γ responses” value [1] was “elicit CD8 IFN-γ responses”.

B5: UL13: HSV-1 protein UL13 (protein)
chain: MDESRRQRPAGHVAANLSPQGARQRSFKDWLASYVHSNPHGASGRPSGPSLQDAAVSRSSHGSRHRSGLRERLRAGLSRWRMSRSSHRRASPETPGTAAKLNRPPLRRSQAALTAPPSSPSHILTLTRIRKLCSPVFAINPALHYTTLEIPGARSFGGSGGYGDVQLIREHKLAVKTIKEKEWFAVELIATLLVGECVLRAGRTHNIRGFIAPLGFSLQQRQIVFPAYDMDLGKYIGQLASLRTTNPSVSTALHQCFTELARAVVFLNTTCGISHLDIKCANILVMLRSDAVSLRRAVLADFSLVTLNSNSTIARGQFCLQEPDLKSPRMFGMPTALTTANFHTLVGHGYNQPPELLVKYLNNERAEFTNHRLKHDVGLAVDLYALGQTLLELVVSVYVAPSLGVPVTRFPGYQYFNNQLSPDFALALLAYRCVLHPALFVNSAETNTHGLAYDVPEGIRRHLRNPKIRRAFTDRCINYQHTHKAILSSVALPPELKPLLVLVSRLCHTNPCARHALS
modifications: human herpesvirus 1
notes: HSV-1 protein UL13
With B5 the “CD8 IFN-γ responses” value [1] was “elicit CD8 IFN-γ responses”.

B6: UL39: HSV-1 UL39/ICP6/10, large subunit of ribonucleotide reductase (protein)
chain: MASRPAASSPVEARAPVGGQEAGGPSAATQGEAAGAPLAHGHHVYCQRVNGVMVLSDKTPGSASYRISDNNFVQCGSNCTMIIDGDVVRGRPQDPGAAASPAPFVAVTNIGAGSDGGTAVVAFGGTPRRSAGTSTGTQTADVPTEALGGPPPPPRFTLGGGCCSCRDTRRRSAVFGGEGDPVGPAEFVSDDRSSDSDSDDSEDTDSETLSHASSDVSGGATYDDALDSDSSSDDSLQIDGPVCRPWSNDTAPLDVCPGTPGPGADAGGPSAVDPHAPTPEAGAGLAADPAVARDDAEGLSDPRPRLGTGTAYPVPLELTPENAEAVARFLGDAVNREPALMLEYFCRCAREETKRVPPRTFGSPPRLTEDDFGLLNYALVEMQRLCLDVPPVPPNAYMPYYLREYVTRLVNGFKPLVSRSARLYRILGVLVHLRIRTREASFEEWLRSKEVALDFGLTERLREHEAQLVILAQALDHYDCLIHSTPHTLVERGLQSALKYEEFYLKRFGGHYMESVFQMYTRIAGFLACRATRGMRHIALGREGSWWEMFKFFFHRLYDHQIVPSTPAMLNLGTRNYYTSSCYLVNPQATTNKATLRAITSNVSAILARNGGIGLCVQAFNDSGPGTASVMPALKVLDSLVAAHNKESARPTGACVYLEPWHTDVRAVLRMKGVLAGEEAQRCDNIFSALWMPDLFFKRLIRHLDGEKNVTWTLFDRDTSMSLADFHGEEFEKLYQHLEVMGFGEQIPIQELAYGIVRSAATTGSPFVMFKDAVNRHYIYDTQGAAIAGSNLCTEIVHPASKRSSGVCNLGSVNLARCVSRQTFDFGRLRDAVQACVLMVNIMIDSTLQPTPQCTRGNDNLRSMGIGMQGLHTACLKLGLDLESAEFQDLNKHIAEVMLLSAMKTSNALCVRGARPFNHFKRSMYRAGRFHWERFPDARPRYEGEWEMLRQSMMKHGLRNSQFVALMPTAASAQISDVSEGFAPLFTNLFSKVTRDGETLRPNTLLLKELERTFSGKRLLEVMDSLDAKQWSVAQALPCLEPTHPLRRFKTAFDYDQKLLIDLCADRAPYVDHSQSMTLYVTEKADGTLPASTLVRLLVHAYKRGLKTGMYYCKVRKATNSGVFGGDDNIVCMSCAL
modifications: human herpesvirus 1
notes: HSV-1 UL39/ICP6/10, large subunit of ribonucleotide reductase
In the case of B6, the “number of distinct restricting HLA alleles” value [1] is reported as 7, the “CD8 IFN-γ responses” value [1] is reported as “elicit CD8 IFN-γ responses” and the “number of persons with CD8 recognition of the ORF” value [1] is reported as 6. For the same molecule, the “number of HLA-level screens in which the ORF was recognized” value [1] was 11 and the “CD8 reactivity restricted by HLA A*0101” value [1] was “strong reactivity”.
